Source: ChEMBL document CHEMBL5233209, “A concise review of recent advances in anti-heart failure targets and its small molecules inhibitors in recent years” (Eur J Med Chem, 2020)

Key:
[1] = Half life in human; format: ADME
[2] = Tmax in human plasma; format: ADME, cell-free
[3] = target: cGMP-specific 3',5'-cyclic phosphodiesterase (Homo sapiens, UniProt O76074); experiment: Inhibition of PDE-5A (unknown origin)
Neprilysin = Neprilysin (Homo sapiens, UniProt P08473); experiment: Inhibition of neutral endopeptidase (unknown origin)
Sequence of Neprilysin (P08473 whole entry): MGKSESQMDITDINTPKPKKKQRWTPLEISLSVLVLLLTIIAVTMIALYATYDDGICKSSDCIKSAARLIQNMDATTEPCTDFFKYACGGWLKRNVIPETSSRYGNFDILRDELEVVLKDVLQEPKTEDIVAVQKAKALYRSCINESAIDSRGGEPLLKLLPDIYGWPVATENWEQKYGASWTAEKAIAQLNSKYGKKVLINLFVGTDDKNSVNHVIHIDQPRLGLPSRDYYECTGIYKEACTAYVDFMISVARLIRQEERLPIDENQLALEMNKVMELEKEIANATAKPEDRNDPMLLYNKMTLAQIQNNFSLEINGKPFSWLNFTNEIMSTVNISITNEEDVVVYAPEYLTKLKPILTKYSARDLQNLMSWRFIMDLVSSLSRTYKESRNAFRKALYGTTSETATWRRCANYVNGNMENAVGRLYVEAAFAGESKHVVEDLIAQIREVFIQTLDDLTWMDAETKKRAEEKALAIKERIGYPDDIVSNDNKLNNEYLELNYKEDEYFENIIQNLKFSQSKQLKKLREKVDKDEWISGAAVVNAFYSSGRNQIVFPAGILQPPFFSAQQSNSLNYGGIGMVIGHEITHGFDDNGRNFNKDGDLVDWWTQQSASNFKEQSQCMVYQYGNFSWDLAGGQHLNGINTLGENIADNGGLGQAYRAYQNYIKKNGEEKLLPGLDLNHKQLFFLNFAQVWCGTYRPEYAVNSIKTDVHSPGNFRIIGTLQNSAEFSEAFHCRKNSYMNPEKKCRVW

half-life [1] | Tmax [2] | IC50 [3] | Compound | other results
12 h | 1.6 h | – | CCCCC(=O)N(Cc1ccc(-c2ccccc2-c2nnn[nH]2)cc1)[C@H](C(=O)O)C(C)C | –
– | – | 2.67 µmol | CC(C)=CCc1c(O)c2c(c3c1OC(C)(C)C=C3)CC=C(c1ccc3c(c1)OCCO3)C2=O | –
– | – | – | CCCCC(=O)N(Cc1ccc(-c2ccccc2-c2nnn[n-]2)cc1)[C@H](C(=O)[O-])C(C)C.CCOC(=O)[C@H](C)C[C@@H](Cc1ccc(-c2ccccc2)cc1)NC(=O)CCC(=O)[O-].O.O.[Na+].[Na+].[Na+] | IC50 (Neprilysin): 5 nM
– | – | 0.5 µmol | CC(C)=CCC1=C(O)c2c(occ(-c3ccc(O[N+](=O)[O-])cc3)c2=O)C2C=CC(C)(C)OC12 (configuration not stated) | –
21 h | – | – | C[C@H](C[C@@H](Cc1ccc(-c2ccccc2)cc1)NC(=O)CCC(=O)O)C(=O)O [LBQ-657] | –
– | 0.5 h | – | CCOC(=O)[C@H](C)C[C@@H](Cc1ccc(-c2ccccc2)cc1)NC(=O)CCC(=O)O [SACUBITRIL] | –
